Measured values published in patent US10836769B2, “Substituted pyrrolizine compounds and uses thereof” (Gilead Sciences, Inc., priority 2018, dated 2020).
Values after ≈ are worked out from the molar mass of the structure shown. Where two headings read alike, the source gives them in different places.

Columns and labels:
[1] = Kinetic Solubility; type: physicochemical; details: kinetic from dmso stock, 0.2 to 100 μM, BD Gentest Solubility Scanner
Experimental: The 10 mM DMSO stock solution of the test compound is serially diluted into a 96-well “DMSO stock dilution plate”. Then Pipette 2 μL from the DMSO stock dilution plate into the “Sample plate” and dilute with 198 µL of the assay media to generate the final concentrations of the test compound ranging from 0.2 to 100 μM. The “Sample plate” is run on a BD Gentest Solubility Scanner.

[2] = test system: HBV; test: HBV DNA Quantification Assay; type: cell-based; details: Hepatitis B virus
Experimental: A HepG2 cell line overexpressing the HBV virus attachment receptor sodium-taurocholate cotransporting polypeptide (NTCP) was grown to confluency in DMEM growth medium, Dulbecco's Modified Eagle Medium without sodium pyruvate (Life Technologies, Rockville, Md.) supplemented with 10% FBS (Thermo Scientific, Waltham, Md.), 1% penicillin/streptomycin (Life Technologies, Rockville, Md.) and 2 mM L-glutamine (Life Technologies, Rockville, Md.) in T175 flasks. Cells were infected with HBV AD38 viral particles (Texcell, Frederick, USA) at 4000 genome equivalents per cell. After allowing viral infection to take place for 4 days, the infected cells were harvested from the flasks by trypsinization, washed twice with OptiMEM (Life Technologies, Rockville, Md.) and re-suspended in DMEM containing 2% FBS and 1% DMSO at a density of 0.25E6 cells/ml. Infected cells were seeded on 384 well collagen coated plates (Greiner, Austria) at a density of 20,000 cells/well containing serially diluted compounds of the present disclosure or DMSO (0.5%) in a final volume of 80 μl. The assay plates were incubated for a period of 5 days and the antiviral activity of the test compounds were assayed by detecting the presence of HBV DNA in the culture supernatant using the QuantiGene™ 2.0 nucleic acid quantification kit (Affymetrix, Santa Clara, Calif.).
The culture supernatant was harvested and treated with lysis buffer containing Proteinase K (Affymetrix, Santa Clara, Calif.). The supernatant was incubated with HBV viral DNA specific probes (Affymetrix, Santa Clara, Calif.) for 30 minutes at 55° C. This was followed by addition of 0.2M NaOH for 30 minutes at room temperature to denature the DNA, followed by addition of Neutralization buffer (Affymetrix, Santa Clara, Calif.). The resulting lysed and neutralized supernatant was then added to QuantiGene™ 2.0 384 well plates coated with capture oligonucleotides and incubated overnight at 55° C. The HBV specific probe set consists of Capture Extender oligonucleotides (CE's) and blocking probes. Following the overnight incubation, the wells were incubated for one hour sequentially with a Pre-Amplifier, Amplifier and Labeled probes conjugated to alkaline phosphatase with a wash step between incubations. After the final wash step, the alkaline phosphatase substrate (Luminol APS5) was added and the resulting luminescence signal was read in an EnVision Multilabel Plate Reader (PerkinElmer, Santa Clara, Calif.). The EC50 values were calculated from the fit of the dose-response curves to a four-parameter equation. All EC50 values represent geometric mean values of a minimum of four determinations.

[3] = aqueous buffer, pH = 7, read-out: Kinetic Solubility at pH = 7
[4] = simulated gastric fluid, pH = 1, read-out: Kinetic Solubility at pH = 1
[5] = 120 h, HepG2 cell line overexpressing NTCP infected with HBV AD38 viral particles, HBV DNA in culture supernatant after 5 days, geometric mean of a minimum of four determinations, read-out: EC50

Row | Structure (SMILES) | solubility kinetic [1, 3] [µM] | solubility kinetic [1, 4] [µM] | EC50 [2, 5] [µM] | solubility kinetic ([1]; assay media at pH 1 (composition not named), simulated gastric fluid, pH = 1, read-out: Kinetic Solubility at pH = 1) [µM] | solubility kinetic ([1]; assay media at pH 7 (composition not named), aqueous buffer, pH = 7, read-out: Kinetic Solubility at pH = 7) [µM] | EC50 ([2]; HepG2, 120 h) [µM]
1 | Cc1c(C(=O)Nc2ccc(F)c(F)c2)c2n(c1C(=O)C(=O)NC1(c3nncs3)CC(F)(F)C1)CCC2 [Example 3, 5-(2-((3,3-difluoro-1-(1,3,4-thiadiazol-2-yl)cyclobutyl)amino)-2-oxoacetyl)-N-(3,4-difluorophenyl)-6-methyl-2,3-dihydro-1H-pyrrolizine-7-carboxamide] | 1.1 (≈ 0.574 µg/mL) | 1.5 (≈ 0.782 µg/mL) | 0.0023 |  |  | 
2 | CNC(=O)C1(NC(=O)C(=O)c2c(C)c(C(=O)Nc3ccc(F)c(F)c3)c3n2CCC3)CC(F)(F)C1 [Example 46] | 88.5 (≈ 43.8 µg/mL) | 84.4 (≈ 41.7 µg/mL) | 0.0225 |  |  | 
3 | CNC(=O)C1(NC(=O)C(=O)c2c(C)c(C(=O)Nc3ccc(F)c(F)c3)c3n2CCC3)COC1 [Example 38, N-(3,4-difluorophenyl)-6-methyl-5-(2-((3-(methylcarbamoyl)oxetan-3-yl)amino)-2-oxoacetyl)-2,3-dihydro-1H-pyrrolizine-7-carboxamide] | 86.7 (≈ 39.9 µg/mL) | 88.7 (≈ 40.8 µg/mL) | 0.0872 |  |  | 
4 | Cc1c(C(=O)Nc2ccc(F)c(F)c2)c2n(c1C(=O)C(=O)NC1(CO)CC(F)(F)C1)CCC2 [Example 19, 5-(2-((3,3-difluoro-1-(hydroxymethyl)cyclobutyl)amino)-2-oxoacetyl)-N-(3,4-difluorophenyl)-6-methyl-2,3-dihydro-1H-pyrrolizine-7-carboxamide] | 62 (≈ 29 µg/mL) | 68.7 (≈ 32.1 µg/mL) | 0.0202 |  |  | 
5 | Cc1c(C(=O)Nc2cc(F)c(F)c(F)c2)c2n(c1C(=O)C(=O)NC1(c3cn(C)nn3)CC(F)(F)C1)CCC2 [Example 4] | 39.9 (≈ 21.4 µg/mL) | 43.3 (≈ 23.2 µg/mL) | 0.0075 |  |  | 
6 | CNC(=O)C1(NC(=O)C(=O)c2c(C)c(C(=O)Nc3cc(F)c(F)c(F)c3)c3n2CCC3)CC(F)(F)C1 [Example 42, 5-(2-((3,3-difluoro-1-(methylcarbamoyl)cyclobutyl)amino)-2-oxoacetyl)-6-methyl-N-(3,4,5-trifluorophenyl)-2,3-dihydro-1H-pyrrolizine-7-carboxamide] | 29.6 (≈ 15.2 µg/mL) | 37.5 (≈ 19.2 µg/mL) | 0.0127 |  |  | 
7 | Cc1c(C(=O)Nc2cc(F)c(F)c(F)c2)c2n(c1C(=O)C(=O)NC1(c3nncs3)CC1)CCC2 [Example 29, 5-(2-((1-(1,3,4-thiadiazol-2-yl)cyclopropyl)amino)-2-oxoacetyl)-6-methyl-N-(3,4,5-trifluorophenyl)-2,3-dihydro-1H-pyrrolizine-7-carboxamide] | 4.5 (≈ 2.2 µg/mL) | 88.7 (≈ 43.4 µg/mL) | 0.0143 |  |  | 
8 | CNC(=O)C1(NC(=O)C(=O)c2c(C)c(C(=O)Nc3ccc(F)c(C(F)F)c3)c3n2CCC3)CC(F)(F)C1 [Example 41] | > 100 | > 100 | 0.0208 |  |  | 
9 | Cc1c(C(=O)Nc2ccc(F)cc2)c2n(c1C(=O)C(=O)NC1(c3cnn[nH]3)CC(F)(F)C1)CCC2 [Example 17, 5-(2-((3,3-difluoro-1-(1H-1,2,3-triazol-4-yl)cyclobutyl)amino)-2-oxoacetyl)-N-(4-fluorophenyl)-6-methyl-2,3-dihydro-H-pyrrolizine-7-carboxamide] | 77.8 (≈ 37.8 µg/mL) | 70.2 (≈ 34.1 µg/mL) | 0.0041 |  |  | 
10 | Cc1c(C(=O)Nc2ccc(F)c(F)c2)c2n(c1C(=O)C(=O)NC1(c3c[nH]nn3)COC1)CCC2 [Example 36, 5-(2-((3-(1H-1,2,3-triazol-4-v)oxetan-3-yl)amino)-2-oxoacetyl)-N-(3,4-difluorophenyl)-6-methyl-2,3-dihydro-1H-pyrrolizine-7-carboxamide] |  |  |  | 63 (≈ 29.6 µg/mL) | 59.9 (≈ 28.2 µg/mL) | 0.0214
11 | Cc1c(C(=O)Nc2ccc(F)c(C#N)c2)c2n(c1C(=O)C(=O)NC1(c3cn(C)nn3)CC(F)(F)C1)CCC2 [Example 5, N-(3-cyano-4-fluorophenyl)-5-(2-((3,3-difluoro-1-(1-methyl-1H-1,2,3-triazol-4-yl)cyclobutyl)amino)-2-oxoacetyl)-6-methyl-2,3-dihydro-1H-pyrrolizine-7-carboxamide] | 20.7 (≈ 10.9 µg/mL) | 11.3 (≈ 5.94 µg/mL) | 0.0436 |  |  | 
